Target: T1, human M4 muscarinic acetylcholine receptor (Homo sapiens, UniProt P08173)
T1 construct: expressed in transfected cells; host or cells: CHO-K1
T1 sequence (P08173 1-479): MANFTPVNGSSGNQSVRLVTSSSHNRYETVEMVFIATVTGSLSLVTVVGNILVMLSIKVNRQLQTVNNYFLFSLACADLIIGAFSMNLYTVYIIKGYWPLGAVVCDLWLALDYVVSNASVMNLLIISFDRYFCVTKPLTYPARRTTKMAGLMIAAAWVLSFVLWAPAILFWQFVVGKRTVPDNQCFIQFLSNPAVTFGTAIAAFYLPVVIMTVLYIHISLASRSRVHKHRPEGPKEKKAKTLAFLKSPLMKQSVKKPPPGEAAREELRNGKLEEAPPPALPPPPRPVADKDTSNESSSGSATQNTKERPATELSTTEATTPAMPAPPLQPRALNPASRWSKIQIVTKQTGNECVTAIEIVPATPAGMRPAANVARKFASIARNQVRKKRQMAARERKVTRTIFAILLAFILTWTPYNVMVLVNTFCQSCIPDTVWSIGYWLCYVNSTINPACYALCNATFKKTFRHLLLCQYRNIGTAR
Assay: human FLIPR-based M4 PAM assay, CHO-K1 cells stably transfected with human M4 receptor and chimeric G-protein Gαqi5
Assay type: cell-based
Details: inflection point (IP) of dose response curve; acetylcholine added at 20% of maximum response; CHO-K1 human M4/Gαqi5, FLIPR Tetra
Procedure, shortened: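 CHO-K1 cells were loaded with calcium dye at 37 °C for ~1 h. Fluorescence (ex 470–495/em 515–575 nm) was read for 4 min after test compound at increasing concentrations, then 3.5 min after acetylcholine at an EC20; sometimes a third addition at EC70 followed. The value is the inflection point of a 4-parameter logistic fit.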

Compound	EC50
COc1ccc(OC2CCN(c3nc(C(=O)NCCc4ccncc4)nc(Cl)c3C)CC2)cn1 [Example 208, 4-chloro-6-(4-((6-methoxypyridin-3-yl)oxy)piperidin-1-yl)-5-methyl-N-(2-(pyridin-4-yl)ethyl)pyrimidine-2-carboxamide]	491 nM
Cc1ccc(OC2CCN(c3nc(CO)nc(Cl)c3C)CC2)cc1Cl [Example 3, (4-chloro-6-(4-(3-chloro-4-methylphenoxy)piperidin-1-yl)-5-methylpyrimidin-2-yl)methanol]	452 nM
COCc1nc(Cl)c(C)c(N2CCC(Oc3ccc(OC)cc3)CC2)n1 [Example 61, 4-chloro-2-(methoxymethyl)-6-(4-(4-methoxyphenoxy)piperidin-1-yl)-5-methylpyrimidine]	84 nM
COc1ccc(OC2CCN(c3nnc(C(=O)NCc4c(C)nc5ccccn45)cc3C)CC2)cn1 [Example 149, 6-{4-[(6-methoxypyridin-3-yl)oxy]piperidin-1-yl}-5-methyl-N-[(2-methylimidazo[1,2-a]pyridin-3-yl)methyl]pyridazine-3-carboxamide]	228 nM
COc1ccc(OC2CCN(c3nnc(C(=O)N[C@H]4CCc5cccnc5C4)cc3C)CC2)cn1 [Example 126B, (S)-6-{4-[(6-methoxypyridin-3-yl)oxy]piperidin-1-yl}-5-methyl-N-(5,6,7,8-tetrahydroquinolin-7-yl)pyridazine-3-carboxamide]	159 nM
Cc1cc(C(=O)NCc2ccncc2)nnc1N1CCC(Oc2ccc3[nH]ncc3c2)CC1 [Example 111, 6-[4-(1H-indazol-5-yloxy)piperidin-1-yl]-5-methyl-N-(pyridin-4-ylmethyl)pyridazine-3-carboxamide]	40 nM
COc1ccc(O[C@@H]2CCN(c3nnc(C(=O)NCc4ccncc4)cc3C)C[C@@H]2F)cn1 [Example 125, 6-{(3S,4R)-3-fluoro-4-[(6-methoxypyridin-3-yl)oxy]piperidin-1-yl}-5-methyl-N-(pyridin-4-ylmethyl)pyridazine-3-carboxamide]	102 nM
COc1ccc(OC2CCN(c3nnc(C(=O)NCc4ccc(S(C)(=O)=O)cc4)cc3C)CC2)cn1 [Example 174, 6-{4-[(6-methoxypyridin-3-yl)oxy]piperidin-1-yl}-5-methyl-N-[4-(methylsulfonyl)benzyl]pyridazine-3-carboxamide]	563 nM
COc1ccc(OC2CCN(c3nnc(C(=O)NCc4ccc5c(c4)OCO5)cc3C)CC2)cn1 [Example 166, N-(1,3-benzodioxol-5-ylmethyl)-6-{4-[(6-methoxypyridin-3-yl)oxy]piperidin-1-yl}-5-methylpyridazine-3-carboxamide]	400 nM
COc1ccc(OC2CCN(c3nnc(C(=O)N[C@@H]4CCCc5ccccc54)cc3C)CC2)cn1 [Example 187, 6-{4-[(6-methoxypyridin-3-yl)oxy]piperidin-1-yl}-5-methyl-N-[(1R)-1,2,3,4-tetrahydronaphthalen-1-yl]pyridazine-3-carboxamide]	1330 nM
COc1ccc(OC2CCN(c3nnc(C(=O)NCc4ccccc4OC)cc3C)CC2)cn1 [Example 158, N-(2-methoxybenzyl)-6-{4-[(6-methoxypyridin-3-yl)oxy]piperidin-1-yl}-5-methylpyridazine-3-carboxamide]	282 nM
COc1ccc(OC2CCN(c3nnc(C(=O)N[C@@H]4CCc5cccnc5C4)cc3C)CC2)cn1 [Example 126A, (R)-6-{4-[(6-methoxypyridin-3-yl)oxy]piperidin-1-yl}-5-methyl-N-(5,6,7,8-tetrahydroquinolin-7-yl)pyridazine-3-carboxamide]	110 nM
COc1ccc(OC2CCN(c3nnc(C(=O)NCc4ccc(F)cc4Cl)cc3C)CC2)cn1 [Example 183, N-(2-chloro-4-fluorobenzyl)-6-{4-[(6-methoxypyridin-3-yl)oxy]piperidin-1-yl}-5-methylpyridazine-3-carboxamide]	915 nM
COc1ccc(OC2CCN(c3nnc(C(=O)NCc4ccn(C)n4)cc3C)CC2)cn1 [Example 134, 6-{4-[(6-methoxypyridin-3-yl)oxy]piperidin-1-yl}-5-methyl-N-[(1-methyl-1H-pyrazol-3-yl)methyl]pyridazine-3-carboxamide]	151 nM
Cc1cc(C(=O)NC2CCc3ccccc3C2)nnc1N1CCC(Oc2cccc(C#N)c2)CC1 (stereo not shown) [Example 201, 6-[4-(3-cyanophenoxy)piperidin-1-yl]-5-methyl-N-(1,2,3,4-tetrahydronaphthalen-2-yl)pyridazine-3-carboxamide]	272 nM
COc1ccc(OC2CCN(c3nc(S(C)(=O)=O)nc(Cl)c3C)CC2)cc1 [Example 73, 4-chloro-6-(4-(4-methoxyphenoxy)piperidin-1-yl)-5-methyl-2-(methylsulfonyl)pyrimidine]	141 nM

More lines, now with the values ahead:

EC50	Compound
101 nM	Cc1cc(C(=O)NCc2ccncc2)nnc1N1CCC(Oc2cccnc2)CC1 [Example 122, 5-methyl-N-(pyridin-4-ylmethyl)-6-[4-(pyridin-3-yloxy)piperidin-1-yl]pyridazine-3-carboxamide]
4940 nM	CSc1ncc(C#N)c(N2CCC(Oc3cccnc3)CC2)n1 [Example 95A, 2-(methylthio)-4-(4-(pyridin-3-yloxy)piperidin-1-yl)pyrimidine-5-carbonitrile]
59 nM	Cc1nc(Cl)c(C)c(N2CCC(Oc3cccc(C#N)c3)CC2)n1 [Example 55, 3-((1-(6-chloro-2,5-dimethylpyrimidin-4-yl)piperidin-4-yl)oxy)benzonitrile]
182 nM	COc1ccc(OC2CCN(c3nnc(C(=O)N[C@@H]4CCc5ccncc5C4)cc3C)CC2)cn1 (single isomer, unassigned) [Example 107A]
61 nM	Cc1nc(C)c(C)c(N2CCC(Oc3cccc(C#N)c3)CC2)n1 [Example 103, 3-((1-(2,5,6-Trimethylpyrimidin-4-yl)piperidin-4-yl)oxy)benzonitrile]
51 nM	Cc1cc(C(=O)NCc2ccccc2)nnc1N1CCC(Oc2cccc(C#N)c2)CC1 [Example 194, N-benzyl-6-[4-(3-cyanophenoxy)piperidin-1-yl]-5-methylpyridazine-3-carboxamide]
4290 nM	Cc1cc(C(=O)NCc2ccncc2)c(N)nc1N1CCC(Oc2cccc(C#N)c2)CC1 [Example 266, 2-Amino-6-(4-(3-cyanophenoxy)piperidin-1-yl)-5-methyl-N-(pyridin-4-ylmethyl)nicotinamide]
225 nM	COC(=O)c1cnc(N2CCC(Oc3ccc(OC)nc3)CC2)c(C)c1 [Example 37, methyl 6-(4-((6-methoxypyridin-3-yl)oxy)piperidin-1-yl)-5-methylnicotinate]
2520 nM	COc1ccc(OC2CCN(c3ncnc(CC(C)C)c3C)CC2)cn1 [Example 255, 4-isobutyl-6-(4-((6-methoxypyridin-3-yl)oxy)piperidin-1-yl)-5-methylpyrimidine]
172 nM	Cc1ncc(C)c(N2CCC(Oc3cccc(C#N)c3)CC2)n1 [Example 76, 3-((1-(2,5-dimethylpyrimidin-4-yl)piperidin-4-yl)oxy)benzonitrile]
55 nM	COc1ncc(OC2CCN(c3nc(CO)nc(Cl)c3C)CC2)cc1F [Example 54, (4-chloro-6-(4-((5-fluoro-6-methoxypyridin-3-yl)oxy)piperidin-1-yl)-5-methylpyrimidin-2-yl)methanol]
475 nM	Cc1ncc(C)c(N2CC[C@H](Oc3cccc(C#N)c3)[C@@H](F)C2)n1 [Example 83, 3-(((3S,4S)-1-(2,5-dimethylpyrimidin-4-yl)-3-fluoropiperidin-4-yl)oxy)benzonitrile]

— patent publication US11319298B2 (Merck Sharp & Dohme Corp., priority 2016, dated 2022)
